Where two headings read alike, the source gives them in different places.
What was measured:
[1] = tested on: SHR with endothelial dysfunction; assay: Survival of SHR with chronic NO synthase blockade (L-NAME), endothelial dysfunction model; assay type: in vivo, rat; details: for survival rate: SHR + L-NAME 12 weeks; for kidney lesions / proteinuria: low doses of valsartan and enalapril
Protocol: Male 20-24 week-old SHR, purchased from RCC Ldt (Fullingsdorf, Switzerland), are maintained in a temperature- and light-controlled room with free access to rat chow (Nafag 9331, Gossau, Switzerland) and tap water. The experiment is p rformed in accordance with the NIH guidelines and approved by the Canton Veterinary office (Bew 161, Kantonales V t rin{overscore (a)}ramt, Liestal, Switzerland). All rats are treated with the NO synthase inhibitor L-NAME (Sigma Chemicals) administered in drinking water (50 mg/l) for 12 weeks. The average daily dose of L-NAME calculated from the water consumed was 2.5 mg/kg/d (range 2.1-2.7).
(§1) The rats are divided into 5 groups: group 1, control (n=40); Group 2, valsartan (val5, 5 mg/kg/d; n=40); Group 3, enalapril (ena1, 1 mg/kg/d; n=30); Group 4, a combination (ena1val5) of enalapril (1 mg/kg/d) and valsartan (5 mg/kg/d); n=30) and Group 5, valsartan (val50, 50 mg/kg/d; n=30). The drugs are administered in drinking fluid. […] The pressor effect of Ang II at […] obtained in controls normotensive rats is reduced by 49% and 73% after treatment with valsartan 5 and 50 mg/kg/d, respectively (Gervais et al. 1999). The response to Ang I injected in Wistar Kyoto rats pretreated with enalapril 1 mg/kg/d or valsartan 5 mg/kg/d is similar.
Body weight is measured every week. Systolic blood pressure and heart rate are recorded by tail cuff plethysmography 3 and 2 weeks before starting the study and at 2 weeks after drug administration. Urine is collected over a 24 hour period from rats kept in individual (metabolic) cages the week before starting treatment and at weeks 4 and 12 for volume measurement and protein, creatinine, sodium and potassium determination using standard laboratory methods. At the same time points, blood samples are withdrawn from the retro-orbital plexus (maximum 1 ml) for creatinine, Na^+ and K^+ assays.
Ten rats from each group are sacrificed at 4 weeks for collection of kidney and heart for morphological analysis. The remaining rats are sacrificed at 12 weeks. Cardiac and kidney weight is recorded. Terminal blood sampling is performed in 5% EDTA at 4 (morphometry study) and 12 (end of the study) weeks for aldosterone, determination by radioimmunoassay using a DPC coat-a-count aldosterone-RIA kit (Bühlmann, Switzerland).
All data are expressed as mean±SEM. Statistical analysis is performed using a one-way ANOVA, followed by a Duncan's multiple range test and a Newman-Keuls test, 7 for comparison between the different groups. Results with a probability value of less than 0.05 are deemed statistically significant.

response to Ang I = assay: Response to Ang I injected in pretreated Wistar Kyoto rats; assay type: in vivo, rat; details: Wistar Kyoto rats pretreated with enalapril 1 mg/kg/d or valsartan 5 mg/kg/d; the two compared
Protocol: as §1

pressor effect of Ang II = details: Ang II at 1 mg/kg, normotensive rats, cited from earlier work
[2] = non-blood pressure reducing doses in drinking fluid: valsartan 5 mg/kg/d, enalapril 1 mg/kg/d, or both combined

SMILES | survival rate [1, 2] [%] | kidney lesions ([1]; SHR + L-NAME) | proteinuria ([1]; SHR + L-NAME) | response to Ang I (response to Ang I) | survival rate ([1]; high dose valsartan 50 mg/kg/d in drinking fluid) [%] | systolic blood pressure ([1]; SHR + L-NAME, valsartan 50 mg/kg, increase in blood pressure significantly attenuated) | reduction of pressor effect of Ang II (pressor effect of Ang II; valsartan 5 mg/kg/d (Gervais et al. 1999)) [%] | reduction of pressor effect of Ang II (pressor effect of Ang II; valsartan 50 mg/kg/d (Gervais et al. 1999)) [%]
CCOC(=O)[C@H](CCc1ccccc1)N[C@@H](C)C(=O)N1CCC[C@H]1C(=O)O [enalapril] | 55 | no reduction | no decrease | similar | – | – | – | –
CCCCC(=O)N(Cc1ccc(-c2ccccc2-c2nnn[nH]2)cc1)[C@H](C(=O)O)C(C)C [valsartan] | 67 | no reduction | no decrease | similar | 95 | above 250 mmHg | 49 | 73

From patent US20040023840A1, “Combination of organic compounds” (priority 2003, published 2004)
